Results as given in EP1371368A1, “Salvianolic acid components as lipase inhibitors” (N.V. Nutricia, priority 2002, dated 2003).

Molecular target: T1, porcine pancreas lipase (Sus scrofa, UniProt P00591)
T1 construct: purchased ICN Biomedicals BV
T1 sequence (P00591 1-450): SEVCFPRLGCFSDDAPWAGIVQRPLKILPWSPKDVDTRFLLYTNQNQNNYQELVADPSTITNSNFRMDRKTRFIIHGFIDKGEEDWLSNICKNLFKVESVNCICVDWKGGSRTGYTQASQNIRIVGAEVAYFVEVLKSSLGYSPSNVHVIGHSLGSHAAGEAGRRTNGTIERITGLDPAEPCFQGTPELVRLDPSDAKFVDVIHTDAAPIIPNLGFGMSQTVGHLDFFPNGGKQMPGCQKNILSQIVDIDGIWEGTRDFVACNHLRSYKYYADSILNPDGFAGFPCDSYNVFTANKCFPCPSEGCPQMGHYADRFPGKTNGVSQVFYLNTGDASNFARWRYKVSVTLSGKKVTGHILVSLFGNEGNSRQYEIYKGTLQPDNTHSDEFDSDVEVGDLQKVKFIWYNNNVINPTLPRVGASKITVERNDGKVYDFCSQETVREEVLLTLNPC
Assay: In vitro lipase inhibitory activity (hydrolysis of p-nitrophenyl caprylate to p-nitrophenol, absorption at 405 nm)
Format: biochemical
Settings: inhibition of lipase activity compared to control at the final concentration printed in the same row
Experimental: Lipase activity was determined by measuring the rate of hydrolysis of p-nitrophenyl caprylate to p-nitrophenol (yellow) and caprylate.
Phosphate buffer A (200 mM phosphate buffer with a pH 7) was prepared by mixing: 488 ml 200 mM Na2HPO4·H2O (17.5 gram/500 ml) with 296 ml 200 mM NaH2PO4·H2O (13.8 gram/500 ml) followed by adjustment of the pH. Substrate solution was prepared freshly by mixing: • a) 500 ml buffer B (200 mM phosphate buffer A pH 7 containing 0.1% (w/v) Triton x-100) and • b) 5.3 ml stock solution of the substrate (250 mM p-nitrophenyl caprylaat (pnp) in acetonitrile). […] The final concentration of pnp in the substrate solution is thus 2.66 mM pnp. Subsequently, the substrate solution was placed in an ultrasonic bath for exactly 3 minutes. […]
Samples were prepared by adding 40 mg of commercial extracts of Salvia material to 4 ml DMSO, incubating at room temperature for 15 minutes, followed by centrifugation to remove the insolubles. […] For each sample the capacity to inhibit lipase activity was determined.
25 µl of sample (25 µl DMSO for control) was added to 150µl substrate solution and incubated for 10 minutes at 37 °C. Subsequently 25 µl lipase solution was added and the p-nitrophenol formation was determined during a period of 10 minutes by measuring the absorption increase at 405 nm. […]

CCCCCCCCCCC[C@@H](C[C@@H]1OC(=O)[C@H]1CCCCCC)OC(=O)[C@H](CC(C)C)NC=O [Orlistat]
Inhibition (%): 50%
